row,SMILES,melting point [°C]
1,CCOC(=O)c1cccc2c(=O)cc(-c3ccc(OCc4ncc5ccccc5n4)cc3)oc12,265 to 266
2,Clc1ccc2nc(NCc3ccco3)nc(-c3ccccc3)c2c1,142
3,CCOC(=O)c1cc(-c2ccc(C#N)cc2)[nH]c1N,228 to 229
4,Cc1noc(C)c1S(=O)(=O)n1c(COC(C)C(=O)O)cc2cc(Cl)ccc21 (configuration not stated),110 to 112
5,S=C1NCC2(CC2)CN1,220 to 222
6,CCOC(=O)c1cnn(-c2cc(C)cc(C)c2)c1C#N,83.5 to 84.5
7,CCOC(=O)c1c(C)[nH]c2ccc(OC[C@@H](O)CN)cc12,66 to 68
8,CCOC(=O)N1CCCCN1C(=S)Cl,160 to 162
9,COc1c(Cl)ccc(-c2cc(N)c(Cl)c(C(=O)N3CC=CCO3)n2)c1F,78 to 81
10,CC(C)OCC(C)Oc1ccc(COc2cnn(C(C)(C)C)c(=O)c2Cl)cc1 (configuration not stated),60 to 62
11,COc1c(N(C)S(=O)(=O)c2ccc(C)cc2)ccccc1=O,94.5
12,Nc1cccnc1Nc1ccccc1C(=O)c1ccc(Cl)cc1,145 to 146
13,CCOC(=O)c1c(C(F)(F)F)oc2ccc(C(F)(F)F)cc2c1=O,116 to 120
14,COc1cccc(-c2nc(N)nc(Nc3ccc(O)cc3)n2)c1,93.5 to 94
15,O=C(O)CC1(O)CCC(N2CCN(CCNc3ccncc3)CC2)CC1 (configuration not stated),238 to 240
16,COc1ccc(Cn2cnc3c(-c4ccco4)nc(C#N)nc32)cc1,205 to 207
17,Cn1ccc(-c2sc(NC(=O)c3ccncc3)nc2-c2ccco2)cc1=O,280 to 282
18,CC(C)(C)NCC(O)c1cc(Cl)c(N)c([N+](=O)[O-])c1 (configuration not stated),148 to 149
19,CCSCc1ccc2[nH]c(NC(=O)OC)nc2c1,229 to 231
20,CCOC(=O)CCC(S)COC(=O)C1=C(C)NC(C)=C([N+](=O)[O-])C1c1ccccc1OCc1ccccc1 (configuration not stated),133
21,Cc1cc2c(-c3cccc(C(F)(F)F)c3)nc(COCC(F)(F)F)nc2s1,40 to 41
22,O=C(O)CCC(=O)c1cccc(Cl)c1,105 to 107
23,COC1C(O)C=C(C)C(OC(=O)c2ccccc2)CC1(C)C (configuration not stated),82.5 to 83.5
24,Cc1nc(-c2ccc(Cl)cc2)c(CC(=O)O)o1,215 to 216
25,COc1cc(OC)nc(C(C)c2ccccc2NS(=O)(=O)C(F)(F)F)n1 (configuration not stated),132 to 133
26,N#CC1CCCc2c(C(=O)O)cccc21 (configuration not stated),177 to 179

row,SMILES,melting point [°C]
1,Cc1cc(=O)n(Cc2ccccc2)c2ccccc12,109 to 111
2,CCOC(=O)NS(=O)(=O)c1ccc(C(=O)C=Cc2cc(-c3cc4ccccc4[nH]3)c(OC)cc2OC)cc1,165 to 175
3,N#Cc1c(N)cccc1Sc1ccccc1,73 to 77
4,CCCCc1nc(Cl)c(CC(Cc2ccccc2)C(=O)O)n1Cc1ccccc1Cl (configuration not stated),138 to 139
5,CCCc1c(OCCC(C)(C)C(=O)NCCCCc2cccnc2)ccc(C(C)=O)c1O,80 to 83
6,CCOCCOc1ccc(OCC(O)CNCCNC(=O)N2CCOCC2)cc1 (configuration not stated),75 to 77
7,CCOC(=O)C(C#N)c1ncccc1[N+](=O)[O-] (configuration not stated),133 to 134
8,N#Cc1c[nH]c2ncnc(N3CCCCC3)c12,209 to 211
9,CC(=O)SCCC(=O)NC(Cc1cn(C=O)c2ccccc12)C(=O)O (racemic),130 to 133
10,O=C1c2ccccc2Cc2c(O)cccc21,230 to 233
11,Cc1ccc(S(=O)(=O)n2cc(C=O)c3ccc(C(=O)Nc4c(Cl)cncc4Cl)cc32)cc1,245
12,C[C@H]1CCCC(C)(C)[C@@H]1[C@H](O)c1ccc(C(F)(F)F)cc1,63 to 66
13,OC(COc1ccccc1Br)C(Cl)(Cl)Cl (configuration not stated),88 to 90
14,O[C@@H](CNCCOc1ccc2oc(-c3ccon3)cc2c1)c1cccc(C(F)(F)F)c1,113 to 114
15,CCCCOc1nc(NC2=CCC(=C=C3CC4CCC3(C)C4(C)C)C=C2)nc(NC2=CCC(=C=C3CC4CCC3(C)C4(C)C)C=C2)n1,181
16,CC1(C)Oc2ccc([N+](=O)[O-])cc2C(C(N)=O)=C1O,189 to 191
17,O=C(O)CCCc1ccc(NS(=O)(=O)c2ccccc2)cc1,128 to 130
18,CCCOC(=O)c1sccc1S(N)(=O)=O,79
19,CCOC(=O)C(C)Oc1ccc(Oc2nc3ccccc3cc2Cl)cc1 (configuration not stated),86
20,CCOC(=O)NC(=NCCCc1c[nH]cn1)NCCSCc1cccnc1,90 to 91
21,C[C@@H]1[C@H]2C(=O)N(Cc3ccccc3)C(=O)[C@H]2[C@@H](c2ccc(Br)cc2)N1C (racemic),166 to 168
22,Nc1nc(N)c2c(ccc3c2ccn3Cc2ccc(Cl)cc2Cl)n1,249 to 250
23,CCSc1nc2ccccc2c(=O)n1NC(=O)Nc1ccc(Cl)cc1,234 to 235
24,O=Cc1c[nH]cc1-c1ccccc1Cl,147 to 148
25,CC(C)(C)CC(C)(C)c1ccc(OCC(=O)Nc2ccc(Cl)c(Nc3cc(=O)n(-c4c(Cl)cc(Cl)cc4Cl)[nH]3)c2)cc1,126 to 128
26,N#Cc1snc(Cl)c1Cl,84.5 to 85

row,SMILES,melting point [°C]
1,COc1ccc(C=CCN2CCC3(CC2)CN(C(=O)c2ccnc(Cl)c2)c2ccc(Cl)cc23)cc1,83 to 85
2,COc1ccc(CN2C(=O)CC2COS(C)(=O)=O)c(OC)c1 (configuration not stated),71 to 72
3,COc1ccc(NC(=O)c2ccccc2F)cc1,83.1 to 84.3
4,CCc1cc(C=C[N+](=O)[O-])c(OC)nc1C,105 to 107
5,Cc1ccc(N(Cc2cccnc2)S(C)(=O)=O)cc1,143 to 146
6,CCCc1nc(NCCOC(N)=O)nc(N2CCOCC2)n1,139 to 140
7,Cn1nc(-c2ccc(Cl)cc2)nc1-c1cccnc1,157 to 158
8,CSc1noc(-c2ccc(OCCCCOc3ccccc3)cc2)c1C#N,113 to 114
9,CC(C)(C)NC(=O)Nc1nc2nc(NCCCN3CCOCC3)ncc2cc1-c1c(Cl)cccc1Cl,236 to 240
10,CCOC(=O)C(CC(=O)c1ccc(Oc2ccc(C)cc2)cc1)SC(C)=O (configuration not stated),85 to 86.5
11,CC1(C)Oc2cccc(O)c2O1,88 to 90
12,O=C(Nc1ccc2cc(CN3CCCC3)cnc2c1)c1ccc(-c2ccc(F)cc2)nc1,218 to 220
13,CCOC(=O)c1ncc2[nH]c3ccc(C(=S)N4CCCCC4)cc3c2c1C,225 to 230
14,COc1ccc(C#N)nc1C,114 to 116
15,CC(C)c1nc(C(C)C)c(/C=C/C=O)c(-c2ccc(F)cc2)c1C=CC=O,122 to 123
16,N#Cc1ccc(N(Cc2ccc(OCc3ccccc3)cc2)n2cnnc2)cc1-c1ccc(F)cc1,211 to 213
17,CCOc1csc(C)c1C1OC(=O)NC1=O (configuration not stated),136 to 138
18,O=C(CCCO)NCCO,54 to 56
19,Fc1cc(F)c(-c2c(F)nc3nncnc3c2F)c(F)c1,160 to 161
20,O=C(Nc1ccc2[nH]c(CNCC3CCOCC3)cc2c1)c1ccc(OCC2CC2)cc1,160
21,COc1cccc2c1sc1[nH]c(=O)c(=O)[nH]c12,> 300
22,COc1ccc2c(c1)c(Cc1cc(=O)n(-c3cccc(Br)c3)[nH]1)c(C)n2C(=O)c1ccc(Cl)cc1,164 to 167
23,N#Cc1c(N2CCCSCC2)cc[nH]c1=S,265 to 270
24,CC(C)(C)Cc1ccc(Oc2ccc(C(O)c3ccncc3)cc2)cc1 (configuration not stated),120 to 122
25,Cc1ccccc1-c1nccc2c(CC(=O)O)cccc12,192
26,CNC(=O)N(O)CCNC(=O)c1cccc(Oc2ccc(Cl)cc2)c1,157 to 158

row,SMILES,melting point [°C]
1,CC(C)N(c1ccc(O)cc1)S(=O)(=O)c1ccc(O)cc1,158 to 159
2,CSC1C(=O)c2ccccc2N1C(=O)c1ccccc1 (configuration not stated),126 to 128
3,CCCc1nc(OC)c(NC(=O)N2CCN(c3cc(C)cc(C)c3)CC2)cc1C,138 to 139
4,O=C1NCc2c(-c3ccccc3)cccc2N1c1ccccc1,234 to 235
5,CC(C)Oc1cccc2c1O[C@@H](COS(C)(=O)=O)CC2,77 to 78
6,CSCC[C@H](NC(=O)[C@@H]1CCC(=O)N1)C(=O)N[C@@H](C)C(=O)N[C@H](C(=O)N[C@@H](CCCCN)C(=O)O)C(C)C,238 to 242
7,CCn1ccc2c(c1=O)CN=C(N1CCN(Cc3ccccc3)CC1)N2,200 to 203
8,CC(=O)CS(=O)(=O)c1ccc(O)cc1,118 to 121
9,CC(=O)c1ccc(NCc2cc3c(cc2O)CCO3)cc1,181 to 183
10,Cc1c(CC2CCc3c(c4ccccc4n3C)C2=O)ncn1S(=O)(=O)N(C)C (configuration not stated),122 to 124
11,Cc1cccc(S(=O)(=O)N=CN(C)C)c1C#N,168 to 174
12,Cc1cc(CCC(=O)c2ccc(-c3ccc(C(F)(F)F)cc3)s2)ccc1OC(C)(C)C(=O)O,130 to 131
13,CC(C)(C#N)c1cc(Cn2cncn2)cc(-c2ccc(OS(N)(=O)=O)cc2)c1,74 to 76
14,COc1ccc(S(=O)(=O)Nc2ccc(CCCC(=O)O)nc2)cc1,129 to 130
15,Cc1cc(SCc2cccc3cn(-c4ccc(C(F)(F)F)cc4)nc23)ccc1OCC(=O)O,79 to 81
16,O=C(NC1CC1)c1ccc(CCN2CC=C(c3c[nH]c(-c4ccc(F)cc4)c3-c3ccncc3)CC2)cc1,226 to 228
17,Cc1oc(COc2ccccc2/C=C/C=C/C#N)nc1-c1ccccc1,128 to 129
18,Cc1nn(CC(F)(F)F)c(C(=O)O)c1[N+](=O)[O-],135 to 138
19,COc1ccc(-c2c(C#N)nn(-c3c(Cl)cc(C(F)(F)F)cc3Cl)c2N)cc1OC,250
20,CN(C)C(=O)Cn1nnnc1S,204 to 205
21,NNC(=O)c1ccc(OC(F)(F)C(F)(F)F)cc1,117 to 120
22,CCN(CC)CCOC(=O)C(C)(c1ccc(O)cc1)c1ccc(O)cc1,140 to 141
23,N=C(NC(=O)c1cccc2ccccc12)N1CC(c2ccccc2)C(c2ccc(Cl)cc2)=N1 (configuration not stated),206 to 207
24,CC(C)(C)c1cc(C(c2ccc(F)cc2)N2CCCCC2)c(O)c(C(C)(C)C)c1 (configuration not stated),135 to 136

# From a melting point compilation (Tetko et al.; mined from patent text by program, amines drawn as free bases though some values may be those of a salt)
